# Laboratory results: article PMC7616177, “From structure to clinic: Design of a muscarinic M1 receptor agonist with the potential to treat Alzheimer’s disease” (Cell, 2021)
# Key:
# human M1 receptor = biological target: T1, human M1 receptor (Homo sapiens, UniProt P11229); assay: Label-free dynamic mass redistribution in CHO cells overexpressing human M1-receptor; type: cell-based
# T1 construct: expressed in transfected cells
# T1 sequence (P11229 1-460): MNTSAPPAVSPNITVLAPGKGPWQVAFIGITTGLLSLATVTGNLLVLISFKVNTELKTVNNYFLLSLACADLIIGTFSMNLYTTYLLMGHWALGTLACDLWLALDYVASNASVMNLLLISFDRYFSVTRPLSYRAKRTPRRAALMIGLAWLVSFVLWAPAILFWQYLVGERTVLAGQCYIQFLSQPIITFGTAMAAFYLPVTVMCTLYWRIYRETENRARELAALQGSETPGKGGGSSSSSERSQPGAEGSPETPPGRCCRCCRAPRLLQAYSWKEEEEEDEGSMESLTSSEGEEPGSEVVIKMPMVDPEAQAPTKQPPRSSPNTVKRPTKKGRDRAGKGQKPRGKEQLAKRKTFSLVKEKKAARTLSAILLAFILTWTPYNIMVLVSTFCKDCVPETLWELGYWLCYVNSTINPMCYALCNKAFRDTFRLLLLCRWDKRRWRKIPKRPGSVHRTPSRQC
# rat M1-receptor = biological target: T2, rat M1-receptor (Rattus norvegicus, UniProt P08482); assay: Recombinant rat M1-receptor functional assay; type: cell-based
# T2 construct: expressed in transfected cells; host or cells: not described
# M2-receptor [1] = biological target: T3, M2-receptor (Homo sapiens, UniProt P08172); assay: [3H]-NMS equilibrium radioligand binding, M2
# T3 sequence (P08172 1-466): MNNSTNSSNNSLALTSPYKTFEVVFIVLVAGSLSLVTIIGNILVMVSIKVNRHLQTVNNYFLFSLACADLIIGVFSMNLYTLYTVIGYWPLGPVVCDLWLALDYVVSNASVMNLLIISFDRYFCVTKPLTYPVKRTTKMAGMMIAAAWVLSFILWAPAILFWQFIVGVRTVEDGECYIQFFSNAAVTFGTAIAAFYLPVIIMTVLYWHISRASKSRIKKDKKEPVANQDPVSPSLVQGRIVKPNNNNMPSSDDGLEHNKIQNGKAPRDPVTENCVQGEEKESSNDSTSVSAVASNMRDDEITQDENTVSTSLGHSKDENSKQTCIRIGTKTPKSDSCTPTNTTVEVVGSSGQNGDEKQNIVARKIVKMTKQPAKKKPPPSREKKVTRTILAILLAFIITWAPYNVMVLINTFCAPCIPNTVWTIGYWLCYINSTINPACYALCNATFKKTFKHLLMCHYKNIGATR
# Procedure: Non-specific binding (NSB) was determined in the presence of 1 μM atropine). Reactions were terminated by rapid filtration onto GF/B filter paper (Whatman, Maidstone, UK) and three washes with 3 mL ice-cold 0.9% NaCl using a Brandel harvester (M-24TI; Brandel, Fort Lauderdale, FL). Membrane bound radioactivity was determined by liquid scintillation (Ultima Gold; PerkinElmer) counting.
# Data was analyzed using PRISM (GraphPad). For saturation binding, non-specific and total binding data were analyzed to a one site binding model. DPM was converted to fmol/mg to compare across constructs. […] […] The Cheng Prusoff equation was used to estimate pKi ([Cheng and Prusoff, 1973]).
# CA1 pyramidal cells = assay: Electrophysiological recordings in rat hippocampal slices; type: cell-based; conditions: read-out: Spontaneous firing rate of CA1 pyramidal cells EC50
# CA1 neurons = assay: In vivo electrophysiological recording of CA1 neurons in anaesthetised rats; parameters: species or system rat
# Wistar rats = assay: Scopolamine-induced amnesia in passive avoidance; type: in vivo, rat
# Procedure: Male adult Wistar rats (Harlan, UK; approximately 11 weeks of age) were acclimatised to the experimental rooms for three days (study days 1-3) and handled for a further two days (study days 4 and 5) prior to the experiment.
# Donepezil (0.01 and 0.1 mg/kg) was administered via intraperitoneal injection (in saline) 60 min prior to training. Rats were trained in a single-trial, step-through, light-dark passive avoidance paradigm. The training apparatus consisted of a chamber 300 mm in length, 260 mm wide, and 270 mm in height. The front and top were transparent, allowing the experimenter to observe the behavior of the animal inside the apparatus. The chamber was divided into two compartments, separated by a central shutter that contained a small opening (50 mm wide and 75 mm high) set close to the front of the chamber. The smaller of the compartments measured 90 mm in width and contained a low-light (~200 lux) illumination source. The larger compartment measured 210 mm in width and was not illuminated. The floor of this dark compartment consisted of a grid of 16 horizontal stainless-steel bars that were 5 mm in diameter and spaced 12.5 mm apart. A current generator supplied 0.75 mA to the grid floor, which was scrambled once every 0.5 s across the 16 bars.
# Animals were placed facing the rear of the light compartment of the apparatus, immediately after which, spontaneous behavior was assessed. The timer was started once the animal completely turned to face the front of the chamber. Latency to enter the dark chamber was recorded, and having completely entered the dark compartment foot shock was administered to the animal, which immediately returned to the light compartment. Animals were then returned to their home cages. Between each training session, both compartments of the chamber were cleaned to remove any confounding olfactory cues. Vehicle (saline) or scopolamine (1 mg/kg) was administered to rats 6 hours after training. Recall of the inhibitory stimulus was evaluated 24 hour post-training on study day 7, by returning the animal into the light chamber and recording their latency to enter the dark chamber, a criterion time of 600 s was employed. Observation of the animals was made by overhead video camera linked to a monitor behind a screened area. Animal treatment was blinded to the observer.
# locomotor activity = assay: Locomotor activity alone or with amphetamine; type: in vivo; conditions: doses up to 100 mg/kg
# [2] = test system: Tg37 hemizygous mice inoculated with RML prions; type: in vivo, mouse; conditions: prion mice 9 w.p.i., 30 mg/kg i.p., 24 h after training
# non-human primates = assay: Safety clinical signs, non-human primates; type: in vivo
# M2-receptor [3] = biological target: T3, M2-receptor; assay: M2-receptor functional agonist assay; type: cell-based; parameters: expressed in transfected cells
# Procedure: Functional assays were performed using the Alphascreen Surefire phopho-ERK1/2 assay. […] Once adhered, cells were serum starved overnight. Agonist stimulation was performed by the addition of […] agonist to the cells for a pre-optimized 5 min period (37°C). Media was removed and 50 μl of lysis buffer added. After 15 min a 4 μl sample was transferred to a 384-well plate and 7 μl of detection mixture added.
# dogs = assay: GLP cardiovascular safety pharmacology telemetry in dogs
# T2 sequence (P08482 whole entry): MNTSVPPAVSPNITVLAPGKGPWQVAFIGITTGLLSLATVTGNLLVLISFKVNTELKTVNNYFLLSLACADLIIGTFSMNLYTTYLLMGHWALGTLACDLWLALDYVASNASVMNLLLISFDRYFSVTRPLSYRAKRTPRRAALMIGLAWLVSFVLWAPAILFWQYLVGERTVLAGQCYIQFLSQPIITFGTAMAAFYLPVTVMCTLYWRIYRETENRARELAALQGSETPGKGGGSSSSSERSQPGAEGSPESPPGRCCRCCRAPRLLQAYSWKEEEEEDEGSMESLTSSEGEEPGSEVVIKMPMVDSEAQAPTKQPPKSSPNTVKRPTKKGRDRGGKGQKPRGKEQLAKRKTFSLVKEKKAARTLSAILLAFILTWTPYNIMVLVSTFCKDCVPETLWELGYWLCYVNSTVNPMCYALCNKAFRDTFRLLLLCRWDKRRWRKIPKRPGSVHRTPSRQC
compound,measurement,setting,value
"CCOC(=O)N1CCC[C@H](N2CCC(C(=O)NC3(C)CCC3)CC2)CC1 [HTL9936, ethyl (S)-4-(4-((1-methylcyclobutyl)carbamoyl)piperidin-1-yl)azepane-1-carboxylate]",EC50,human M1 receptor,0.079 µM
same,Agonist behaviour at the rat receptor,rat M1-receptor,partial agonist
same,Ki,M2-receptor [1],3.16 µM
same,EC50,CA1 pyramidal cells,1.6 µM
same,In vivo firing rate of CA1 neurons vs vehicle,"CA1 neurons; 10 mg/kg i.v., rats",significant increase in the in vivo firing rate of CA1 neurons
same,In vivo neuronal firing rate,"CA1 neurons; adult rats, 1 and 10 mg/kg, reversed by scopolamine i.v.",concentration-dependent increase in neuronal firing rate
same,Maximal response compared with donepezil 0.1 mg/kg,Wistar rats; rat passive avoidance,equivalent to that obtained using the clinically approved acetylcholinesterase inhibitor donepezil
same,Response alone,"Wistar rats; rat passive avoidance, HTL9936 3 mg/kg",no response alone
same,Effect on scopolamine-induced amnesia,"Wistar rats; rat, 3, 10 or 30 mg/kg p.o., scopolamine 1 mg/kg i.p.",reversed in a dose-dependent manner
same,Adverse responses and locomotor activity,locomotor activity,no adverse responses nor had any effect on locomotor activity
same,Immobility level on re-exposure to training environment,[2],~ 34%
same,"Cu,pl without cholinergic clinical signs",non-human primates,991 nM
same,Plasma exposure without cholinergic clinical signs,non-human primates,≤ 557 ng/mL
same,EC50,M2-receptor [3],> 20 µM
same,M2-receptor agonist activity,M2-receptor [3],no detectable agonism
same,Time for hemodynamic changes to return to control levels after end of i.v. infusion,dogs; dogs,≤ 30 min
same,Blood pressure and heart rate,"dogs; telemetered dogs, i.v. infusion","dose-dependent profile of HTL9936 effects on blood pressure, but not heart rate"
